The numbers were not newly measured in US20110086911A1, “NOVEL BISMUTH(III) NSAID COMPOUNDS AND METHODS FOR THEIR USE” (Monash University, priority 2009, published 2011), which cites them from elsewhere.

The data set concerns H. pylori strains B128, 251 and 26695. To be noted: comparison values for substances not listed among those tested.

In the case of `CNC(=C[N+](=O)[O-])NCCSCc1ccc(CN(C)C)o1.O=C([O-])CC(O)(CC(=O)[O-])C(=O)[O-].[Bi+3]` [RBC, ranitidine bismuth citrate], the MIC value was 8 µg/mL. In the case of colloidal bismuth subcitrate [CBS], the MIC value was no less than 12.5 µg/mL.
